According to patent publication US20230039816A1, “METHOD FOR INDUCING HEPATOCYTE PLASTICITY” (Public University Corporation Yokohama City University, priority 2019, published 2023):

Key:
[1] = system: old N-Heps (D52-, D62-, D72-, D82-Hep); assay: Plasticity induction of old N-Heps in RM with epigenetic regulators; assay type: cell-based, human; conditions: RM with 0.25 mM NaB, 0.5 mM VPA, 10 μM Trany, 0.5 μM RG108 or 0.5 μM BIX
Experimental: (§1) The medium was changed on day 1, 3, and 5. To block the PI3K and MAPK signaling pathways, 10 μM LY29002 and a given dose of PD0325902 (0.01 μM˜1 μM) were each added to RM. […] To regulate epigenetic modification, 0.25 mM NaB, 0.5 mM VPA, 10 μM Trany, 0.5 μM RG108 and 0.5 μM BIX were added in RM. The number of cells was analyzed using an Incell analyzer 2000 (GE Healthcare) combined with Hoechst 33342 staining (Invitrogen).

[2] = system: elderly model (mice fed CDE diet); assay: Induction of hepatic progenitor cells in elderly mice on CDE diet; assay type: in vivo
Excerpt: Finally, we investigated whether HDACi could improve the induction of hepatic progenitor cells in elderly models. To induce hepatic progenitor cells in mice, we fed young and elderly mice with a choline-deficient, ethionine-supplemented (CDE) diet for 21 days.

PHHs = assay: Plasticity induction of primary human hepatocytes; assay type: cell-based; conditions: PHHs in RM+NaB vs RM
Experimental: The cryopreserved PHHs were thawed according to the manufacturer's instructions. For the positive control experiments, PHHs were cultured on collagen I-coated culture dishes at a density of 1×10^5 cells/cm^2 using Williams E medium containing 5% FBS, 1 μM dexamethasone, 100 IU/mL penicillin (Thermo Fisher Scientific), 100 μg/mL streptomycin (Thermo Fisher Scientific), 4 μg/mL Human Recombinant Insulin (Sigma), 2 mM GlutaMAX (Thermo Fisher Scientific), and 15 mM HEPES (Sigma). After 24 h, the supernatant from PHHs was collected for ALB analysis. […] At day 0 of culture, 5% FBS was used to improve cell adherence. After 24 h, the medium was exchanged with a fresh medium and subsequently changed every 2 days.

D22-pHC = assay: Hepatocyte differentiation from pHC; assay type: cell-based, human; conditions: HDM with 3 μM RA, 15 days
Experimental: The hepatocyte differentiation of pHCs was initiated at about 90% confluence. For 8 days, the medium was changed to HDM containing 3 μM RA and for another 7 days, the medium was changed to RA-free HDM. The medium was changed every 2 days. The total hepatocyte differentiation period was 15 days.

EZH2 = EZH2 transcription by Q-PCR in reprogrammed hepatocytes; assay type: cell-based, human; conditions: RM treated D22-Hep
Experimental: The medium was changed on day 1, 3, and 5. To block the PI3K and MAPK signaling pathways, 10 μM LY29002 and a given dose of PD0325902 (0.01 μM 1 μM) were each added to RM. […] To regulate epigenetic modification, 0.25 mM NaB, 0.5 mM VPA, 10 μM Trany, 0.5 μM RG108 and 0.5 μM BIX were added in RM. […] Total RNA was isolated using a PureLinkTM RNA Mini Kit.

D22-Hep = assay: Induction of proliferation of D22-Hep in reprogramming medium (RM); assay type: cell-based, human; conditions: 6 days in BM+SMs/RM; PD0325901 0.01-1 μM, LY294002 10 μM, DZNep 0.1 μM, FGF2 added to BM+SMs
Experimental: as §1

CCCC(=O)[O-].[Na+] [NaB, sodium butyrate]
proliferation of pHCs induced from D52-Heps [1]: markedly promoted the proliferation of pHCs | survival rate ([2]; CDE diet): improved | induced Ki67 positive and Epcam positive population ([2]; CDE diet 21 days, liver sections): significantly increased | plasticity induction efficiency (PHHs): significantly increased the plasticity induction efficiency

CC1=C(/C=C/C(C)=C/C=C/C(C)=C/C(=O)O)C(C)(C)CCC1 [retinoic acid]
ALB production and hepatocyte morphology (D22-pHC): significant improvement in ALB production and typical hepatocyte morphology

O=C(O)C(Cc1c[nH]c2ccccc12)N1C(=O)c2ccccc2C1=O (stereo not shown) [RG108]
proliferation of pHCs induced from D52-Heps [1]: such promotion was not detectable

O=C(NOC[C@H](O)CO)c1ccc(F)c(F)c1Nc1ccc(I)cc1F [PD0325901]
EZH2 transcription (EZH2): suppressed | induced cellular proliferation of D22-Hep (D22-Hep): inhibited the FGF2-mediated cellular proliferation in a dose-dependent manner

FGF2: Recombinant Human FGF2, member of the FGF family
induced cellular proliferation of D22-Hep (D22-Hep): the induced proliferative ability greatly improved

CCCC(CCC)C(=O)O [VPA, valproic acid]
proliferation of pHCs induced from D52-Heps [1]: markedly promoted the proliferation of pHCs

COc1cc2nc(N3CCCN(C)CC3)nc(NC3CCN(Cc4ccccc4)CC3)c2cc1OC [BIX01294]
proliferation of pHCs induced from D52-Heps [1]: such promotion was not detectable

Cl.Nc1nccc2c1ncn2[C@@H]1C=C(CO)[C@@H](O)[C@H]1O [DZNep, 3-deazaneplanocin A hydrochloride]
induced cellular proliferation of D22-Hep (D22-Hep): significant attenuation of the induced cellular proliferation

N[C@@H]1C[C@H]1c1ccccc1 (racemic) [tranylcypromine]
proliferation of pHCs induced from D52-Heps [1]: such promotion was not detectable
